Among the data in paper PMC8964833, “Identification of cell wall synthesis inhibitors active against Mycobacterium tuberculosis by competitive activity-based protein profiling” (Cell Chemical Biology, 2022) are inhibition values, retold here.

One may read the inhibition as the drop in the measured response relative to a control, in per cent.

Assay [1] concerns the target T1, Pks13 (Mycobacterium tuberculosis, UniProt I6X8D2). Kind of assay: cell-based. Particulars: Mycobacterium tuberculosis H37Rv, read-out: % inhibition.
Assay [2] deals with T1, Pks13. Description: cell-based. The settings on record: Mycobacterium tuberculosis H37Rv, read-out: % inhibition. The source holds these as a separate data set.

Where two headings read alike, the source gives them in different places.

T1 sequence (I6X8D2 whole entry, looked up): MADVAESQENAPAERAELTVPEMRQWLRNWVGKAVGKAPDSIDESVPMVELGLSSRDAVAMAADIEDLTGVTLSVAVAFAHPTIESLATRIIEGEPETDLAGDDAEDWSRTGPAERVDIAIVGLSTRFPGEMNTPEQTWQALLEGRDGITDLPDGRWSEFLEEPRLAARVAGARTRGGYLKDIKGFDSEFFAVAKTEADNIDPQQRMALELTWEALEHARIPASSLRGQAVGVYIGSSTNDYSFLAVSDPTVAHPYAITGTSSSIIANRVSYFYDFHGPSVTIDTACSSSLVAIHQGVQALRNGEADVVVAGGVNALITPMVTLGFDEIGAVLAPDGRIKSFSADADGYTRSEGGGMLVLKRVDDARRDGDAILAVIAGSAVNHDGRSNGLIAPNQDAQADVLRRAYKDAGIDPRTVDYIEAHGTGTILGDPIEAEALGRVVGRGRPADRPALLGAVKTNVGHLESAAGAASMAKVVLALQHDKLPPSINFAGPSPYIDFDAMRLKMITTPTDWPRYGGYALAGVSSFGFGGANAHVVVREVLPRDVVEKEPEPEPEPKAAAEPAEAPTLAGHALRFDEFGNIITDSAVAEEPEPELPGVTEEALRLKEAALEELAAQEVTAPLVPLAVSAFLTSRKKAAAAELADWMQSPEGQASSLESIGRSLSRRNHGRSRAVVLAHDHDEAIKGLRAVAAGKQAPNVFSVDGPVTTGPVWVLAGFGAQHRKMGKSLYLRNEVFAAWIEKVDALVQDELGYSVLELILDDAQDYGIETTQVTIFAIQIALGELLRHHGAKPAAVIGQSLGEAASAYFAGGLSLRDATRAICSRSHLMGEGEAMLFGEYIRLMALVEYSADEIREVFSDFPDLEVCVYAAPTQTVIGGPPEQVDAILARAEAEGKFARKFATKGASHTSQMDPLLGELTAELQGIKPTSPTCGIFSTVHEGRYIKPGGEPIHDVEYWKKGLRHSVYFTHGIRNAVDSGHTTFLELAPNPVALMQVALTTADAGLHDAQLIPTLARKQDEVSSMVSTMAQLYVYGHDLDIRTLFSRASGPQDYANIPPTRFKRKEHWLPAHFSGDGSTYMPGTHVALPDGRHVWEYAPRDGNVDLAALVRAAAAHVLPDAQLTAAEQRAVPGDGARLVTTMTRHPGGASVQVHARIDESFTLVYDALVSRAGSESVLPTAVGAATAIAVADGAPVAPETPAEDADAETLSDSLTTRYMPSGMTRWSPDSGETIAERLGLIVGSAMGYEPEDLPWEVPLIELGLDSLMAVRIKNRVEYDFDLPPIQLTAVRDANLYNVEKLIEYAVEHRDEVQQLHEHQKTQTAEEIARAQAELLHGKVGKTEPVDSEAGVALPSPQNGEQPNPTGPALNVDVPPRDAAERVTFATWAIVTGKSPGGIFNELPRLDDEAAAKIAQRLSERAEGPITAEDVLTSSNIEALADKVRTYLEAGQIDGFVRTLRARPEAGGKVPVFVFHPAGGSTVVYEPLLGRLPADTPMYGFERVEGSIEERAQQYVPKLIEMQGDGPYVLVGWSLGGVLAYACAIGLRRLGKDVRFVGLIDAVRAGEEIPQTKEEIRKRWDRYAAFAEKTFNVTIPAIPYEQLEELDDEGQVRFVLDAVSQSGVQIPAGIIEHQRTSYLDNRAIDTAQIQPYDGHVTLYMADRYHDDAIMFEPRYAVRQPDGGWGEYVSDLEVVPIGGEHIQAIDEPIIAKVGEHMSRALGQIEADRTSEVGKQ

On to `CC(C)(O)c1cnn(C(=O)N2CCC(C(C)(C)C)CC2)n1` [AA692-(2,4), AA692], for which the inhibition at 13 µM on Pks13 [1] came to 0%; at Pks13 [2], 18%.

On to `CC(C)(O)c1cnn(C(=O)N2CCCCC2)n1` [AA702], for which, on Pks13 [2], the inhibition at 13 µM turned out to be 0%.
